Reference: ChEMBL document CHEMBL3885861, “Open TG-GATES”
*1 amine or outer side, *2 acyl side, *3 side chain or, on linkers, in order; H or OH if unused. Where a SMILES comes first, the peptide text is derived from it. Bridges are numbered along the chain shown (N, C = ends). [ ]: non-standard residue; d: D form. Trp(2-yl) = O=C([C@H](Cc1c([*:3])[nH]c2ccccc12)N[*:1])[*:2]; Leu(4R-OH,5-OH) = C[C@](O)(CO)C[C@H](N)C(=O)O; cisHyp = O=C(O)[C@@H]1C[C@H](O)CN1

Species: Rattus norvegicus
Experiment: Open TG-GATES - Regimen: Single
Assay type: toxicity, organism-based, Sprague-Dawley
Parameters: regimen Single, gender Male, age 6 weeks
Conditions: in vivo, ip, route intraperitoneal injection; for APTT / Bas / Eos / Fbg / Hb / Ht / Lym / MCH / MCHC / MCV / Mono / Neu / PT / Plat / RBC / Ret / WBC: tissue Blood; for KIDNEY_L / KIDNEY_R / KIDNEY_TOTAL: tissue Kidney; for LIVER: tissue Liver; for A/G / ALP / ALT / AST / BUN / CRE / Ca / Cl / DBIL / GLC / IP / K / LDH / Na / PL / RALB / TBIL / TC / TG / TP / gamma-GTP: tissue Plasma
[1] = 0 mg/kg, 3 h, dose level Control
[2] = 0 mg/kg, 6 h, dose level Control
[3] = 0 mg/kg, 9 h, dose level Control
[4] = 0 mg/kg, 24 h, dose level Control

## C[C@@H]1NC(=O)[C@H](C[C@@](C)(O)CO)NC(=O)[C@@H]2Cc3c([nH]c4ccccc34)SC[C@H](NC(=O)[C@@H]([C@H](C)O)NC1=O)C(=O)N1C[C@@H](O)C[C@H]1C(=O)N[C@@H](C)C(=O)N2 [PHALLOIDIN] (cyclo(A[dT]C[cisHyp]A[Trp(2-yl)][Leu(4R-OH,5-OH)]); thioether 3-6)
[1]
  TERMINAL_BW: 206 g
  APTT: 23.6 s
  Bas: 0%
  Eos: 0.2%
  Fbg: 283.8 mg/dL
  Hb: 12.9 g/dL
  Ht: 40.5%
  Lym: 73.8%
  MCH: 20.1 pg
  MCHC: 32%
  MCV: 62.8 fL
  Mono: 2.4%
  Neu: 22.8%
  PT: 16.1 s
  Plat: 112.9 x10_4/uL
  RBC: 645 x10_4/ul
  Ret: 7.5%
  WBC: 74.9 x10_2/uL
  KIDNEY_L: 0.9 g
  KIDNEY_R: 0.9 g
  KIDNEY_TOTAL: 1.8 g
  LIVER: 8.6 g
  A/G: 1.2
  ALP: 1620.6 IU/L
  ALT: 45.2 IU/L
  AST: 76.4 IU/L
  BUN: 11.2 mg/dL
  CRE: 0.2 mg/dL
  Ca: 10.4 mg/dL
  Cl: 108.6 meq/L
  DBIL: 0 mg/dL
  GLC: 187.8 mg/dL
  IP: 8.4 mg/dL
  K: 3.8 meq/L
  LDH: 165.2 IU/L
  Na: 141.8 meq/L
  PL: 132 mg/dL
  RALB: 2.8 g/dL
  TBIL: 0 mg/dL
  TC: 81 mg/dL
  TG: 66.2 mg/dL
  TP: 5.2 g/dL
  gamma-GTP: 1 IU/L
[2]
  TERMINAL_BW: 208.8 g
  APTT: 22.5 s
  Bas: 0%
  Eos: 0.4%
  Fbg: 305.6 mg/dL
  Hb: 12.5 g/dL
  Ht: 38.7%
  Lym: 79.6%
  MCH: 20.4 pg
  MCHC: 32.2%
  MCV: 63.4 fL
  Mono: 1.8%
  Neu: 17.2%
  PT: 16 s
  Plat: 126.1 x10_4/uL
  RBC: 611.2 x10_4/ul
  Ret: 7.3%
  WBC: 94.6 x10_2/uL
  KIDNEY_L: 0.9 g
  KIDNEY_R: 0.9 g
  KIDNEY_TOTAL: 1.8 g
  LIVER: 9.1 g
  A/G: 1.2
  ALP: 1368 IU/L
  ALT: 38 IU/L
  AST: 69 IU/L
  BUN: 15.6 mg/dL
  CRE: 0.2 mg/dL
  Ca: 10.5 mg/dL
  Cl: 106.2 meq/L
  DBIL: 0 mg/dL
  GLC: 195.8 mg/dL
  IP: 7.8 mg/dL
  K: 4.2 meq/L
  LDH: 168.6 IU/L
  Na: 141.2 meq/L
  PL: 137 mg/dL
  RALB: 2.8 g/dL
  TBIL: 0 mg/dL
  TC: 82 mg/dL
  TG: 63 mg/dL
  TP: 5.2 g/dL
  gamma-GTP: 1.4 IU/L
[3]
  TERMINAL_BW: 208.4 g
  APTT: 22.5 s
  Bas: 0%
  Eos: 0.4%
  Fbg: 290.4 mg/dL
  Hb: 12.5 g/dL
  Ht: 39.2%
  Lym: 79.4%
  MCH: 20.4 pg
  MCHC: 31.9%
  MCV: 63.8 fL
  Mono: 1.6%
  Neu: 18%
  PT: 15.9 s
  Plat: 120.7 x10_4/uL
  RBC: 613.6 x10_4/ul
  Ret: 7.1%
  WBC: 83.1 x10_2/uL
  KIDNEY_L: 0.9 g
  KIDNEY_R: 1 g
  KIDNEY_TOTAL: 1.9 g
  LIVER: 9.2 g
  A/G: 1.2
  ALP: 1788.6 IU/L
  ALT: 45.2 IU/L
  AST: 75.4 IU/L
  BUN: 13.4 mg/dL
  CRE: 0.2 mg/dL
  Ca: 10.5 mg/dL
  Cl: 105 meq/L
  DBIL: 0 mg/dL
  GLC: 202.8 mg/dL
  IP: 7.7 mg/dL
  K: 4.3 meq/L
  LDH: 145.6 IU/L
  Na: 140.8 meq/L
  PL: 134.8 mg/dL
  RALB: 2.9 g/dL
  TBIL: 0.004 mg/dL
  TC: 79 mg/dL
  TG: 71.2 mg/dL
  TP: 5.3 g/dL
  gamma-GTP: 1.4 IU/L
[4]
  TERMINAL_BW: 216 g
  APTT: 22.7 s
  Bas: 0%
  Eos: 0.6%
  Fbg: 321.6 mg/dL
  Hb: 12.3 g/dL
  Ht: 38.4%
  Lym: 83.8%
  MCH: 20.3 pg
  MCHC: 32.1%
  MCV: 63.4 fL
  Mono: 1.6%
  Neu: 13.4%
  PT: 16 s
  Plat: 120 x10_4/uL
  RBC: 606.2 x10_4/ul
  Ret: 7.7%
  WBC: 76.3 x10_2/uL
  KIDNEY_L: 1 g
  KIDNEY_R: 1 g
  KIDNEY_TOTAL: 2 g
  LIVER: 9.4 g
  A/G: 1.2
  ALP: 1563.4 IU/L
  ALT: 40.8 IU/L
  AST: 69 IU/L
  BUN: 14 mg/dL
  CRE: 0.2 mg/dL
  Ca: 10.5 mg/dL
  Cl: 105.4 meq/L
  DBIL: 0.002 mg/dL
  GLC: 196 mg/dL
  IP: 8.9 mg/dL
  K: 3.9 meq/L
  LDH: 182.4 IU/L
  Na: 141.6 meq/L
  PL: 144.2 mg/dL
  RALB: 2.9 g/dL
  TBIL: 0.002 mg/dL
  TC: 85.6 mg/dL
  TG: 55.4 mg/dL
  TP: 5.3 g/dL
  gamma-GTP: 1.8 IU/L
1 mg/kg, 3 h, dose level High
  TERMINAL_BW: 211.9 g
  APTT: 21.8 s
  Bas: 0%
  Eos: 0%
  Fbg: 259.6 mg/dL
  Hb: 12.4 g/dL
  Ht: 39.5%
  Lym: 73.8%
  MCH: 20 pg
  MCHC: 31.5%
  MCV: 63.3 fL
  Mono: 2.6%
  Neu: 22.6%
  PT: 15.9 s
  Plat: 108.1 x10_4/uL
  RBC: 623.8 x10_4/ul
  Ret: 7.7%
  WBC: 66 x10_2/uL
  KIDNEY_L: 1 g
  KIDNEY_R: 1 g
  KIDNEY_TOTAL: 2 g
  LIVER: 9.1 g
  A/G: 1.2
  ALP: 1810.8 IU/L
  ALT: 49.6 IU/L
  AST: 110 IU/L
  BUN: 12 mg/dL
  CRE: 0.2 mg/dL
  Ca: 10.4 mg/dL
  Cl: 107.8 meq/L
  DBIL: 0.006 mg/dL
  GLC: 184.8 mg/dL
  IP: 8.6 mg/dL
  K: 4 meq/L
  LDH: 235.2 IU/L
  Na: 139.6 meq/L
  PL: 125.8 mg/dL
  RALB: 2.7 g/dL
  TBIL: 0.012 mg/dL
  TC: 78.6 mg/dL
  TG: 36.2 mg/dL
  TP: 4.9 g/dL
  gamma-GTP: 1.6 IU/L
1 mg/kg, 6 h, dose level High
  TERMINAL_BW: 210 g
  APTT: 22.3 s
  Bas: 0%
  Eos: 0.2%
  Fbg: 286.6 mg/dL
  Hb: 12.5 g/dL
  Ht: 39.2%
  Lym: 79.6%
  MCH: 20 pg
  MCHC: 31.9%
  MCV: 62.6 fL
  Mono: 2%
  Neu: 17.4%
  PT: 15.9 s
  Plat: 111.9 x10_4/uL
  RBC: 626 x10_4/ul
  Ret: 6.8%
  WBC: 90.8 x10_2/uL
  KIDNEY_L: 0.9 g
  KIDNEY_R: 1 g
  KIDNEY_TOTAL: 1.9 g
  LIVER: 9.2 g
  A/G: 1.3
  ALP: 1613.8 IU/L
  ALT: 56.6 IU/L
  AST: 114.6 IU/L
  BUN: 14.8 mg/dL
  CRE: 0.2 mg/dL
  Ca: 10.3 mg/dL
  Cl: 106.2 meq/L
  DBIL: 0 mg/dL
  GLC: 186.4 mg/dL
  IP: 7.6 mg/dL
  K: 3.9 meq/L
  LDH: 232 IU/L
  Na: 142 meq/L
  PL: 141 mg/dL
  RALB: 2.9 g/dL
  TBIL: 0.004 mg/dL
  TC: 90.4 mg/dL
  TG: 65.8 mg/dL
  TP: 5.1 g/dL
  gamma-GTP: 1.8 IU/L
1 mg/kg, 9 h, dose level High
  TERMINAL_BW: 208.3 g
  APTT: 20.7 s
  Bas: 0%
  Eos: 0.4%
  Fbg: 291.6 mg/dL
  Hb: 12.3 g/dL
  Ht: 39.3%
  Lym: 80.6%
  MCH: 20.2 pg
  MCHC: 31.4%
  MCV: 64.4 fL
  Mono: 2.4%
  Neu: 15.4%
  PT: 15.3 s
  Plat: 114.2 x10_4/uL
  RBC: 610.4 x10_4/ul
  Ret: 7.8%
  WBC: 75 x10_2/uL
  KIDNEY_L: 0.9 g
  KIDNEY_R: 0.9 g
  KIDNEY_TOTAL: 1.9 g
  LIVER: 9.2 g
  A/G: 1.3
  ALP: 1636.4 IU/L
  ALT: 56.8 IU/L
  AST: 109.6 IU/L
  BUN: 12.8 mg/dL
  CRE: 0.2 mg/dL
  Ca: 10.4 mg/dL
  Cl: 106.4 meq/L
  DBIL: 0 mg/dL
  GLC: 180.4 mg/dL
  IP: 7.9 mg/dL
  K: 4.3 meq/L
  LDH: 158.2 IU/L
  Na: 140.4 meq/L
  PL: 144 mg/dL
  RALB: 2.9 g/dL
  TBIL: 0.008 mg/dL
  TC: 97.4 mg/dL
  TG: 63.2 mg/dL
  TP: 5.1 g/dL
  gamma-GTP: 1.6 IU/L
1 mg/kg, 24 h, dose level High
  TERMINAL_BW: 220.3 g
  APTT: 21.7 s
  Bas: 0%
  Eos: 0.8%
  Fbg: 304.4 mg/dL
  Hb: 12.5 g/dL
  Ht: 39.6%
  Lym: 81.2%
  MCH: 20.3 pg
  MCHC: 31.7%
  MCV: 64 fL
  Mono: 1.8%
  Neu: 15.6%
  PT: 15.4 s
  Plat: 119.9 x10_4/uL
  RBC: 619.8 x10_4/ul
  Ret: 7.6%
  WBC: 71.5 x10_2/uL
  KIDNEY_L: 1 g
  KIDNEY_R: 1 g
  KIDNEY_TOTAL: 2.1 g
  LIVER: 10.2 g
  A/G: 1.2
  ALP: 1849.4 IU/L
  ALT: 45 IU/L
  AST: 81.6 IU/L
  BUN: 15.2 mg/dL
  CRE: 0.1 mg/dL
  Ca: 10.7 mg/dL
  Cl: 106.8 meq/L
  DBIL: 0.002 mg/dL
  GLC: 189.2 mg/dL
  IP: 8.2 mg/dL
  K: 4.4 meq/L
  LDH: 191 IU/L
  Na: 141.6 meq/L
  PL: 147.2 mg/dL
  RALB: 2.8 g/dL
  TBIL: 0.002 mg/dL
  TC: 95.8 mg/dL
  TG: 74 mg/dL
  TP: 5.3 g/dL
  gamma-GTP: 1.6 IU/L
